Values of other authors in paper PMC2837554 (ChemMedChem, 2010).

Assays:
[1] = target: Aβ aggregates
[2] = target: aggregated Aβ; conditions: reported value

Kd [1] | Kd [2] | Compound
38 nM | – | CN(C)c1ccc(/C=C/C2=CC(=C/C=C3C=CC(=[N+](C)C)C=C3)/O[B-](F)(F)O2)cc1 [CRANAD-2]
– | 2000 nM | Cc1ccc2c(c1)sc(-c1ccc(N(C)C)cc1)[n+]2C [ThT, Thioflavin T]
